Target: T1, Recombinant KAT6A/MOZ (488-778) protein (Homo sapiens, UniProt Q92794)
T1 construct: Recombinant KAT6A/MOZ (488-778) protein (Active motif, Catalog #81223); purchased Active Motif 81223
Assay: Kat6a AlphaLISA Inhibition Screening Assay
Format: biochemical
Details: 10′ pre-incubation; Table 2; read-out: Kat6A biochemical assay: IC50
Experimental: The Kat6a inhibitory activity of test compounds was determined using an Alpha Screen-based detection method. The assay reactions were conducted in a volume of 10 μL in Alpha Plate, White 384 well plate (cat #6008280, Perkin Elmer). The enzymatic reactions were performed in assay buffer pH 8.0 (50 mM Tris-HCl, 0.1 mM EDTA, 0.01% Tween-20, 1 mM Dithiothreitol, 0.1% BSA (fatty acid free) and 330 nM TSA (Trichostatin A)). 10 μL reaction volume consisting of 25 nM of Recombinant KAT6A/MOZ (488-778) protein (Active motif, Catalog #81223), 400 nM Acetyl coenzyme A (Catalog #A2056, Sigma), 200 nM of Histone H3 peptide [(amino acids 1-21), biotin-labeled (BPS Biosciences, Catalog #52011,)] and a 10-point dose response curve for test/tool compounds were prepared. Enzyme and compounds solution were pre-incubated in assay plate for 60 or 10 min at room temperature then substrate and Acetyl coenzyme A solution were added to the plate. After addition, the plate was sealed with adhesive seals and incubated for 120 minutes at room temperature.
After 120 minutes of incubation, 5 μL (10 μg/mL) of AlphaLISA anti-acetyl-Lysine acceptor beads (Perkin Elmer, Catalog #AL143C) were added to the plate and it was incubated for 60 minutes at room temperature. Then 10 μL (10 μg/mL) of Alpha Streptavidin donor beads (Perkin Elmer, Catalog #6760002S) were added to the plate which was further incubated for 60 minutes at room temperature. After incubation, the alpha signal was recorded by using Perkin Elmer Envision multi-mode reader.
NA means the compound was not active at the concentration tested. […] NT means not tested.

T1 sequence (Q92794 488-778): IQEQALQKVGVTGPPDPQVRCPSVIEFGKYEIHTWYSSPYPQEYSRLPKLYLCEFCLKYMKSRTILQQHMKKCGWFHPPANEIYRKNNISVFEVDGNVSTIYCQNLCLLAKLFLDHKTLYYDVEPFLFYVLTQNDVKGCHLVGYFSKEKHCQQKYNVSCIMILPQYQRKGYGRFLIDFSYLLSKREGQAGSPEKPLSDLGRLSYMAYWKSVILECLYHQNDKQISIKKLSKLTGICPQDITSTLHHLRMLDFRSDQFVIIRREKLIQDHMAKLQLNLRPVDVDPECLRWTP

| SMILES | IC50 [µM] |
| --- | --- |
| C#CC(=O)NCc1ccn(Cc2cc(OC)c3c(NS(=O)(=O)CC4CCCCC4)noc3c2)n1 [Synthetic Example 8, N-((1-((3-((cyclohexylmethyl)sulfonamido)-4-methoxybenzo[d]isoxazol-6-yl)methyl)-1H-pyrazol-3-yl)methyl)propiolamide] | ≤ 10 |
| CCC(=O)NCc1ccn(Cc2cc(OC)c3c(NS(=O)(=O)CC4CCCCC4)noc3c2)n1 [Synthetic Example 9, N-((1-((3-((cyclohexylmethyl)sulfonamido)-4-methoxybenzo[d]isoxazol-6-yl)methyl)-1H-pyrazol-3-yl)methyl)propionamide] | ≤ 10 |
| C=CC(=O)NCc1ccc2cc(C(=O)NS(=O)(=O)c3ccccc3F)oc2c1 [Synthetic Example 10, 6-(acrylamidomethyl)-N-((2-fluorophenyl)sulfonyl)benzofuran-2-carboxamide] | ≤ 10 |
| C#CC(=O)NCc1ccc2cc(C(=O)NS(=O)(=O)c3ccccc3F)oc2c1 [Synthetic Example 11, N-((2-fluorophenyl)sulfonyl)-6-(propiolamidomethyl)benzofuran-2-carboxamide] | 20 to 50 |
| C=CC(=O)N1CCC(C(=O)NCc2ccc3cc(C(=O)NS(=O)(=O)c4ccccc4F)oc3c2)CC1 [Synthetic Example 14, 1-acryloyl-N-((2-(((2-fluorophenyl)sulfonyl)carbamoyl)benzofuran-6-yl)methyl)piperidine-4-carboxamide] | 20 to 50 |
| C=CC(=O)NCC(=O)NCc1ccc2cc(C(=O)NS(=O)(=O)c3ccccc3F)oc2c1 [Synthetic Example 39, 6-((2-acrylamidoacetamido)methyl)-N-((2-fluorophenyl)sulfonyl)benzofuran-2-carboxamide] | 20 to 50 |
| C=CC(=O)N1CCC(C(=O)NCc2ccc3cc(C(=O)NS(=O)(=O)c4ccccc4F)oc3c2)C1 (stereo not drawn) [Synthetic Example 40, 1-acryloyl-N-((2-(((2-fluorophenyl)sulfonyl)carbamoyl)benzofuran-6-yl)methyl)pyrrolidine-3-carboxamide] | > 100 |

Same assay, conditions: 60′ pre-incubation; Table 2; read-out: Kat6A biochemical assay: IC50

| SMILES | IC50 [µM] |
| --- | --- |
| COc1cc(Cn2cc3c(n2)CN(C(=O)C#CCN(C)C)C3)cc2onc(NS(=O)(=O)CC3CCCCC3)c12 [Synthetic Example 3, 1-cyclohexyl-N-(6-((5-(4-(dimethylamino)but-2-ynoyl)-5,6-dihydropyrrolo[3,4-c]pyrazol-2(4H)-yl)methyl)-4-methoxybenzo[d]isoxazol-3-yl)methanesulfonamide] | ≤ 10 |
| C=CC(=O)NCc1cnn(Cc2cc(OC)c3c(NS(=O)(=O)CC4CCCCC4)noc3c2)c1 [Synthetic Example 4, N-((1-((3-((cyclohexylmethyl)sulfonamido)-4-methoxybenzo[d]isoxazol-6-yl)methyl)-1H-pyrazol-4-yl)methyl)acrylamide] | ≤ 10 |
| C=CC(=O)NCc1ccnc(-c2cc(C)cc(C(=O)NNS(=O)(=O)c3c(OC)cccc3OC)c2)c1 [Synthetic Example 15, N-((2-(3-(2-((2,6-dimethoxyphenyl)sulfonyl)hydrazine-1-carbonyl)-5-methylphenyl)pyridin-4-yl)methyl)acrylamide] | ≤ 10 |
| C#CC(=O)NCc1ccnc(-c2cc(C)cc(C(=O)NNS(=O)(=O)c3c(OC)cccc3OC)c2)c1 [Synthetic Example 16, N-((2-(3-(2-((2,6-dimethoxyphenyl)sulfonyl)hydrazine-1-carbonyl)-5-methylphenyl)pyridin-4-yl)methyl)propiolamide] | ≤ 10 |
| C=CS(=O)(=O)NCc1ccn(Cc2cc(OC)c3c(NS(=O)(=O)c4ccccc4F)noc3c2)n1 [Synthetic Example 17, 2-fluoro-N-(4-methoxy-6-((3-(vinylsulfonamidomethyl)-1H-pyrazol-1-yl)methyl)benzo[d]isoxazol-3-yl)benzenesulfonamide] | ≤ 10 |
| C=CC(=O)NCc1ccn(Cc2cc(OC)c3c(NS(=O)(=O)c4ccccc4F)noc3c2)n1 [Synthetic Example 18, N-((1-((3-((2-fluorophenyl)sulfonamido)-4-methoxybenzo[d]isoxazol-6-yl)methyl)-1H-pyrazol-3-yl)methyl)acrylamide] | ≤ 10 |
| C=CS(=O)(=O)NCc1ccn(Cc2cc(OC)c3c(NS(=O)(=O)c4c(OC)cccc4OC)noc3c2)n1 [Synthetic Example 19, 2,6-dimethoxy-N-(4-methoxy-6-((3-(vinylsulfonamidomethyl)-1H-pyrazol-1-yl)methyl)benzo[d]isoxazol-3-yl)benzenesulfonamide] | ≤ 10 |
| C=CS(=O)(=O)NCc1ccn(Cc2cc(OC)c3c(NS(=O)(=O)c4ccccc4OC)noc3c2)n1 [Synthetic Example 22, 2-methoxy-N-(4-methoxy-6-((3-(vinylsulfonamidomethyl)-1H-pyrazol-1-yl)methyl)benzo[d]isoxazol-3-yl)benzenesulfonamide] | ≤ 10 |
| C=C(F)C(=O)NCc1ccn(Cc2cc(OC)c3c(NS(=O)(=O)CC4CCCCC4)noc3c2)n1 [Synthetic Example 23, N-((1-((3-((cyclohexylmethyl)sulfonamido)-4-methoxybenzo[d]isoxazol-6-yl)methyl)-1H-pyrazol-3-yl)methyl)-2-fluoroacrylamide] | ≤ 10 |
| C=CS(=O)(=O)NCc1ccn(Cc2cc(OC)c3c(NS(=O)(=O)CC4CCCCC4)noc3c2)n1 [Synthetic Example 24, N-((1-((3-((cyclohexylmethyl)sulfonamido)-4-methoxybenzo[d]isoxazol-6-yl)methyl)-1H-pyrazol-3-yl)methyl)ethenesulfonamide] | ≤ 10 |
| C=CS(=O)(=O)N1Cc2cnn(Cc3cc(OC)c4c(NS(=O)(=O)c5ccccc5OC)noc4c3)c2C1 [Synthetic Example 27A, 2-methoxy-N-(4-methoxy-6-((5-(vinylsulfonyl)-5,6-dihydropyrrolo[3,4-c]pyrazol-1(4H)-yl)methyl)benzo[d]isoxazol-3-yl)benzenesulfonamide] | ≤ 10 |
| COc1cc(Cn2ncc3c2CNC3)cc2onc(NS(=O)(=O)CC3CCCCC3)c12 [Synthetic Example 28A, 1-cyclohexyl-N-(6-((5,6-dihydropyrrolo[3,4-c]pyrazol-1(4H)-yl)methyl)-4-methoxybenzo[d]isoxazol-3-yl)methanesulfonamide] | ≤ 10 |
| COc1cc(Cn2cc3c(n2)CNC3)cc2onc(NS(=O)(=O)CC3CCCCC3)c12 [Synthetic Example 28B, 1-cyclohexyl-N-(6-((5,6-dihydropyrrolo[3,4-c]pyrazol-2(4H)-yl)methyl)-4-methoxybenzo[d]isoxazol-3-yl)methanesulfonamide] | 10 to 20 |
| C=CC(=O)N1Cc2cnn(Cc3cc(OC)c4c(NS(=O)(=O)CC5CCCCC5)noc4c3)c2C1 [Synthetic Example 29A, N-(6-((5-acryloyl-5,6-dihydropyrrolo[3,4-c]pyrazol-1(4H)-yl)methyl)-4-methoxybenzo[d]isoxazol-3-yl)-1-cyclohexylmethanesulfonamide] | ≤ 10 |
| C#CC(=O)NCc1cnn(Cc2cc(OC)c3c(NS(=O)(=O)c4c(OC)cccc4OC)noc3c2)c1 [Synthetic Example 34, N-((1-((3-((2,6-dimethoxyphenyl)sulfonamido)-4-methoxybenzo[d]isoxazol-6-yl)methyl)-1H-pyrazol-4-yl)methyl)propiolamide] | ≤ 10 |
| C#CC(=O)NCc1cnn(Cc2cc(OC)c3c(NS(=O)(=O)c4cccc(OC)c4)noc3c2)c1 [Synthetic Example 35, N-((1-((4-methoxy-3-((3-methoxyphenyl)sulfonamido)benzo[d]isoxazol-6-yl)methyl)-1H-pyrazol-4-yl)methyl)propiolamide] | ≤ 10 |
| C#CC(=O)NCc1cnn(Cc2cc(OC)c3c(NS(=O)(=O)c4ccc(C(=O)OC)cc4)noc3c2)c1 [Synthetic Example 38, methyl 4-(N-(4-methoxy-6-((4-(propiolamidomethyl)-1H-pyrazol-1-yl)methyl)benzo[d]isoxazol-3-yl)sulfamoyl)benzoate] | ≤ 10 |
| C=CC(=O)N1CCC(c2ccnc(-c3cc(C)cc(C(=O)NNS(=O)(=O)c4ccccc4F)c3)c2)CC1 [Synthetic Example 41, N-(3-(4-(1-acryloylpiperidin-4-yl)pyridin-2-yl)-5-methylbenzoyl)-2-fluorobenzenesulfonohydrazide] | ≤ 10 |

Same assay, conditions: 60′ pre-incubation; Table 3; read-out: Kat6A Biochemical assay: IC50

| SMILES | IC50 [µM] |
| --- | --- |
| C#CC(=O)N1CCc2c(cnn2Cc2cc(OC)c3c(NS(=O)(=O)c4cc(CC)ccc4OC)noc3c2)C1 [105a, 5-ethyl-2-methoxy-N-(4-methoxy-6-((5-propioloyl-4,5,6,7-tetrahydro-1H-pyrazolo[4,3-c]pyridin-1-yl)methyl)benzo[d]isoxazol-3-yl)benzenesulfonamide] | ≤ 10 |
| C#CC(=O)N1CCc2nn(Cc3cc(OC)c4c(NS(=O)(=O)c5cc(CC)ccc5OC)noc4c3)cc2C1 [105b, 5-ethyl-2-methoxy-N-(4-methoxy-6-((5-propioloyl-4,5,6,7-tetrahydro-2H-pyrazolo[4,3-c]pyridin-2-yl)methyl)benzo[d]isoxazol-3-yl)benzenesulfonamide] | ≤ 10 |

Source: patent US11976075B2, “Inhibitors of the MYST family of lysine acetyl transferases” (Isosterix, Inc., priority 2022, dated 2024)
